Reference: patent publication US9260417B2, “Therapeutic methods and compositions involving allosteric kinase inhibition” (AMITECH THERAPEUTIC SOLUTIONS, INC., priority 2010, dated 2016)

Columns and labels:
[1] = tested on: tumor lines; assay: Tumor cell viability, summary over tumor lines; type: cell-based; conditions: summary of Table 5
[2] = tested on: SN12C-RFP renal cells; assay: Orthotopic renal cell carcinoma model; type: in vivo, mice; conditions: 100 mg/kg, po, qd; day 26 (vehicle 132±39 mg)
Source text: (FIG. 10A) Real-time fluorescent imaging of SN12C-RFP renal cells orthotopically injected into […] of nu/nu mice. […] Drug treatments were started 7 days after orthotopic injection and tumor growth was visualized every 7 days by whole animal imaging. The images shown are of 4 mice in the vehicle and drug treated groups on day 26. Scale bar=10 mm. (FIG. 10B) At the end of the study, both the left tumor bearing kidney and right kidney were extracted and weighed.
Male Nu/Nu mice were anesthetized with an intraperitoneal injection of 50 mg/kg ketamine and […] medetomidine. A small incision was made along the left flank of the mice and the kidney was exposed. A 27-gauge insulin syringe was used for orthotopic injection of the SN12C-RFP cells. One million tumor cells in 20 μl of a 1:1 PBS:Matrigel mixture were injected into the lower pole of the kidney just below the renal subcapsule. […]
To test the effects of 6 on tumor growth after oral administration, human SN12C renal cells expressing RFP were injected into the kidney capsule of nude mice and tumors were allowed to develop for 7 days. […] Suppression of tumor growth was readily observed in those animals treated with 6 (FIG. 10A). On day 26, the kidneys were excised from these animals and the weight due to tumor was calculated by subtracting the weight of the normal kidney from the weight of the tumor-bearing kidney for each animal.

[3] = tested on: MDA-MB231 human breast carcinoma cells; assay: MDA-MB231 orthotopic breast cancer xenograft; type: in vivo, mice
Method: Tumors were generated by injection of MDA-MB231 human breast carcinoma cells (1×10^6 tumor cells in 50 μl of sterile PBS) into the mammary fatpad of 6-8 week old female Nu/Nu mice. Tumors were allowed to grow and the mice were randomized into two groups with an average tumor volume of 100 mm^3. […] Tumor growth was monitored by measuring the tumor length and width with precision calipers every 2 days and calculating tumor volume using the following formula: Tumor volume=0.5*(length)*(width)^2, provided the smaller measurement was utilized as the length. […] Scale bar 20 μM. […] Cells were lysed in RIPA buffer (50 mM Tris pH 7.4, 100 mM NaCl, 0.1% SDS, 1.0% TritonX-100, 1% deoxycholate) supplemented with complete protease inhibitor mixture (Roche), 50 mM NaF, and 1 mM Na3VO4 and centrifuged at 13,000 g for 10 min at 4° C. Protein concentration was determined by BCA assay and 30 μg of protein was loaded per lane of 10% SDS-PAGE gel. Immunohistochemistry in FIG. 18A was performed according to the manufacturer's recommendations (Vector Labs), on […] sections of paraffin-embedded tumors from the orthotopic xenograft breast cancer mouse model (MDA-MB231). For phospho-S338 CRAF immunohistochemistry, antigen retrieval was performed in citrate buffer pH 6.0 at 95° C. for 20 min. […]

[4] = target: VEGFR2 (Homo sapiens (Human), UniProt P35968); assay: KINOMEscan competitive binding assay; conditions: 10 uM
[5] = target: PIM1 (Homo sapiens (Human), UniProt P11309); assay: KINOMEscan competitive binding assay; conditions: 10 uM

CSc1nc(N)cc(Oc2ccc(-c3nnc(Nc4cccc(C(F)(F)F)c4)[nH]3)cc2)n1 [Compound 6]
times more potent than sorafenib [1]: 15-100 times | EC50 ([1]; read-out: EC50 in wide range of tumor lines): 100 to 600 nM | average tumor burden (tumor-bearing kidney minus normal kidney weight) [2]: 49 ± 18 mg | breast tumor growth compared to vehicle ([3]; 50 mg/kg, bid, ip): suppresses tumor growth | phosphorylation of CRAF S338 in breast tumors ([3]; three consecutive days, tumors resected 1 h after final dose): clearly inhibits phosphorylation of S338 | % Control [4]: 80% | % Control [5]: 96%
